Source: the CheMixHub ionic liquid set
± gives the uncertainty stated by the source.

Assay: xn = mol fraction of the nth substance listed
Conditions: 101 kPa

In the case of `CCCC[N+]1(C)CCCC1.N#C[S-]` + O, the viscosity (298.15 K, x2 = 0.2203) is reported as 68.6 ± 5.8 mPa·s, the viscosity (298.15 K, x2 = 0.5252) is reported as 28.9 ± 1.8 mPa·s and the viscosity (298.15 K, x2 = 0.783) is reported as 10.04 ± 0.63 mPa·s. The viscosity (298.15 K, x2 = 0.8623) was 5.9 ± 0.37 mPa·s, the viscosity (308.15 K, x2 = 0.5252) was 19.9 ± 1.2 mPa·s and the viscosity (308.15 K, x2 = 0.6634) was 12.37 ± 0.77 mPa·s. For the same compound, the viscosity (308.15 K, x2 = 0.8623) was 4.31 ± 0.27 mPa·s, the viscosity (308.15 K, x2 = 0.9657) was 1.36 ± 0.09 mPa·s and the viscosity (318.15 K, x2 = 0.2203) was 31.6 ± 2 mPa·s. It also gave a viscosity (318.15 K, x2 = 0.8623) of 3.23 ± 0.2 mPa·s, a viscosity (318.15 K, x2 = 0.9657) of 1.1 ± 0.07 mPa·s and a viscosity (328.15 K, x2 = 0.0853) of 28.9 ± 1.8 mPa·s. It also gave a viscosity (328.15 K, x2 = 0.783) of 4.19 ± 0.26 mPa·s, a viscosity (338.15 K, x2 = 0) of 25.3 ± 1.6 mPa·s and a viscosity (338.15 K, x2 = 0.2203) of 17.3 ± 1.1 mPa·s. The viscosity (338.15 K, x2 = 0.783) was 3.27 ± 0.2 mPa·s, the viscosity (338.15 K, x2 = 0.9657) was 0.79 ± 0.051 mPa·s and the viscosity (348.15 K, x2 = 0.2203) was 13.32 ± 0.83 mPa·s. It also gave a viscosity (348.15 K, x2 = 0.6634) of 4.42 ± 0.28 mPa·s and a viscosity (348.15 K, x2 = 0.9657) of 0.69 ± 0.044 mPa·s.

With `O=C(O)CC(O)(CC(=O)O)C(=O)O` + C[N+](C)(C)Cc1ccccc1.[Cl-] the electrical conductivity (293.15 K, x2 = 0.5) was 3.3e-05 ± 1e-06 S/m, the electrical conductivity (298.09 K, x2 = 0.5) was 3.9e-05 ± 1e-06 S/m and the electrical conductivity (303.11 K, x2 = 0.5) was 0.000162 ± 1e-06 S/m. The electrical conductivity (308.2 K, x2 = 0.5) was 0.000519 ± 1e-06 S/m, the viscosity (312.91 K, x2 = 0.5) was 237000 ± 35000 mPa·s and the electrical conductivity (313.21 K, x2 = 0.5) was 0.00111 ± 1e-06 S/m. It also gave an electrical conductivity (318.06 K, x2 = 0.5) of 0.001906 ± 1e-06 S/m, a viscosity (327.86 K, x2 = 0.5) of 52100 ± 6400 mPa·s and an electrical conductivity (328.14 K, x2 = 0.5) of 0.005576 ± 1e-06 S/m. For the same compound, the electrical conductivity (333.12 K, x2 = 0.5) was 0.009475 ± 1e-06 S/m.

In the case of `CCCCCC[N+](C)(C)C.[Br-]` + O, the viscosity (298.15 K, x1 = 0.000888) is reported as 0.9148 mPa·s, the viscosity (298.15 K, x1 = 0.001394) is reported as 0.9261 mPa·s and the viscosity (298.15 K, x1 = 0.002133) is reported as 0.9439 mPa·s. The viscosity (298.15 K, x1 = 0.003331) was 0.9727 mPa·s, the viscosity (298.15 K, x1 = 0.004173) was 0.9962 mPa·s and the electrical conductivity (298.15 K, x1 = 0.004485) was 1.84 ± 0.074 S/m. For the same compound, the viscosity (298.15 K, x1 = 0.005042) was 1.019 mPa·s, the viscosity (298.15 K, x1 = 0.005996) was 1.043 mPa·s and the viscosity (298.15 K, x1 = 0.006874) was 1.066 mPa·s. For the same compound, the viscosity (298.15 K, x1 = 0.007743) was 1.088 mPa·s, the viscosity (298.15 K, x1 = 0.008657) was 1.113 mPa·s and the viscosity (298.15 K, x1 = 0.0096) was 1.138 mPa·s. It also gave a viscosity (298.15 K, x1 = 0.01046) of 1.162 mPa·s, a viscosity (298.15 K, x1 = 0.01139) of 1.189 mPa·s and a viscosity (298.15 K, x1 = 0.01245) of 1.222 mPa·s.

For `CCCCCCCCCC[n+]1ccn(C)c1.O=S(=O)([N-]S(=O)(=O)C(F)(F)C(F)(F)F)C(F)(F)C(F)(F)F` + O, the electrical conductivity (295.15 K, x2 = 0.14) was 0.11 ± 0.02 S/m.

Work on `OC1OC[C@@H](O)[C@H](O)[C@H]1O` (some centres not stated) + O + CCCCCCCCCC[n+]1ccn(C)c1.[Br-] yielded a viscosity (298.15 K, x1 = 0.0001909, x3 = 0.001813) of 0.998 ± 0.015 mPa·s, a viscosity (298.15 K, x1 = 0.0001999, x3 = 0.003572) of 1.112 ± 0.015 mPa·s and a viscosity (298.15 K, x1 = 0.0002133, x3 = 0.005429) of 1.247 ± 0.016 mPa·s. For the same compound, the viscosity (298.15 K, x1 = 0.0002286, x3 = 0.007128) was 1.391 ± 0.017 mPa·s, the viscosity (298.15 K, x1 = 0.0003836, x3 = 0.001812) was 1.001 ± 0.015 mPa·s and the viscosity (298.15 K, x1 = 0.0003893, x3 = 0.005428) was 1.254 ± 0.016 mPa·s. For the same compound, the viscosity (298.15 K, x1 = 0.0003978, x3 = 0.003572) was 1.116 ± 0.015 mPa·s, the viscosity (298.15 K, x1 = 0.000437, x3 = 0.007127) was 1.398 ± 0.017 mPa·s and the viscosity (298.15 K, x1 = 0.0005688, x3 = 0.001812) was 1.005 ± 0.015 mPa·s. It also gave a viscosity (298.15 K, x1 = 0.0005861, x3 = 0.003571) of 1.123 ± 0.015 mPa·s, a viscosity (298.15 K, x1 = 0.0005867, x3 = 0.005427) of 1.262 ± 0.016 mPa·s and a viscosity (298.15 K, x1 = 0.0006133, x3 = 0.007125) of 1.404 ± 0.017 mPa·s. It also gave a viscosity (298.15 K, x1 = 0.0007539, x3 = 0.001812) of 1.012 ± 0.015 mPa·s, a viscosity (298.15 K, x1 = 0.0007591, x3 = 0.00357) of 1.129 ± 0.015 mPa·s and a viscosity (298.15 K, x1 = 0.0007841, x3 = 0.005426) of 1.269 ± 0.016 mPa·s. For the same compound, the viscosity (298.15 K, x1 = 0.0008175, x3 = 0.007124) was 1.409 ± 0.017 mPa·s, the viscosity (298.15 K, x1 = 0.0009408, x3 = 0.001811) was 1.018 ± 0.015 mPa·s and the viscosity (298.15 K, x1 = 0.0009549, x3 = 0.00357) was 1.133 ± 0.015 mPa·s. It also gave a viscosity (298.15 K, x1 = 0.0009897, x3 = 0.007123) of 1.418 ± 0.017 mPa·s, a viscosity (298.15 K, x1 = 0.000999, x3 = 0.005425) of 1.276 ± 0.016 mPa·s and a viscosity (298.15 K, x1 = 0.001114, x3 = 0.003569) of 1.136 ± 0.015 mPa·s. For the same compound, the viscosity (298.15 K, x1 = 0.001117, x3 = 0.001811) was 1.021 ± 0.015 mPa·s, the viscosity (298.15 K, x1 = 0.001181, x3 = 0.005424) was 1.28 ± 0.016 mPa·s and the viscosity (298.15 K, x1 = 0.001198, x3 = 0.007121) was 1.427 ± 0.017 mPa·s. It also gave a viscosity (298.15 K, x1 = 0.00132, x3 = 0.001811) of 1.023 ± 0.015 mPa·s, a viscosity (298.15 K, x1 = 0.001321, x3 = 0.003568) of 1.143 ± 0.015 mPa·s and a viscosity (298.15 K, x1 = 0.00137, x3 = 0.005423) of 1.286 ± 0.016 mPa·s. The viscosity (298.15 K, x1 = 0.001406, x3 = 0.00712) was 1.433 ± 0.017 mPa·s, the viscosity (298.15 K, x1 = 0.00149, x3 = 0.00181) was 1.03 ± 0.015 mPa·s and the viscosity (298.15 K, x1 = 0.001525, x3 = 0.003568) was 1.149 ± 0.015 mPa·s. It also gave a viscosity (298.15 K, x1 = 0.001559, x3 = 0.005422) of 1.292 ± 0.016 mPa·s, a viscosity (298.15 K, x1 = 0.001622, x3 = 0.007118) of 1.441 ± 0.017 mPa·s and a viscosity (298.15 K, x1 = 0.001679, x3 = 0.00181) of 1.037 ± 0.015 mPa·s. The viscosity (298.15 K, x1 = 0.001728, x3 = 0.003567) was 1.158 ± 0.015 mPa·s, the viscosity (298.15 K, x1 = 0.001768, x3 = 0.005421) was 1.3 ± 0.016 mPa·s and the viscosity (298.15 K, x1 = 0.001812, x3 = 0.007117) was 1.449 ± 0.017 mPa·s.
